What is called solubility is how much of the substance goes into solution per volume.

≈ marks a conversion by molar mass, not a printed value. Entries after “also recorded” stand apart in the source; their conditions may differ. Where two headings read alike, the source gives them in different places. Bounds are passed on as bounds.

The values that follow come from paper PMC10855879, “Formulation Studies with Cyclodextrins for Novel Selenium NSAID Derivatives” (International Journal of Molecular Sciences, 2024).

A short description of data set [1]: Water solubility by quantitative 1H-NMR in D2O, alone or with cyclodextrin. It counts as physicochemical. The conditions noted are these: for solubility: 25 °C, thermodynamic from solid, 298 K; for Improvement of water solubility after exposure to β- and γ-CD (in words): complexes versus compounds alone. As for the experimental part:
For all the Se-NSAID derivatives, the formation of inclusion complexes either with β- or γ-CDs was evaluated by quantitative proton nuclear magnetic resonance (^1H-NMR) spectroscopy (Figures S1–S40 in Supplementary Materials). The election for such CDs is based on the fact that β-CD is one of the most frequently used CDs for encapsulating NSAIDs. Additionally, given the size of the studied molecules, a larger CD such as γ-CDs was also evaluated.
The experimental formation of inclusion complexes with either β-CD or γ-CD was evaluated via quantitative ^1H-NMR spectroscopy. This method is based on the consideration that the integration for a given signal that is selected as a marker for a given compound is proportional to its concentration. Consequently, solutions of 0.5 mL in D2O (≥99.85% in deuterated component) with an excess of each compound were prepared, along with either 4 mg of dimethyl sulfone (as internal standard) or with the corresponding CD at 10 mM. ^1H-NMR spectra were recorded at 298 K on a Bruker Avance Neo at a proton resonance frequency of 400 MHz. The solubilities were calculated considering the ratio between the area of the peaks belonging to the internal standard or the CDs and the different hydrogens of the Se-NSAID derivatives.

Another data set deals with colon cancer. More on the design: method as in PMID 37759969. The conditions noted are these: in vitro and in vivo; cited from earlier work.
Setting [2] is: water, D2O, compound alone, dimethyl sulfone internal standard, read-out: Water Solubility, Compound.
[3] abbreviates: D2O with β-cyclodextrin, aqueous with cosolvent or surfactant or cyclodextrin, D2O, β-CD 10 mM, read-out: Water Solubility, Compound + β-CD.
Setting [4] is: D2O with γ-cyclodextrin, aqueous with cosolvent or surfactant or cyclodextrin, D2O, γ-CD 10 mM, read-out: Water Solubility, Compound + γ-CD.

Take `COc1ccc2cc(C(C)C(=O)[Se]CCC#N)ccc2c1` (centres unmarked) [I.3e]: the figures for the solubility in data set [1] (setting [2]), in data set [1] (setting [3]) and in data set [1] (setting [4]) were 9.7 µM (≈ 3.36 µg/mL), 992 µM and 273 µM, respectively. Further, the “Improvement of water solubility after exposure to β- and γ-CD (in words)” value in data set [1] is “remarkable improvement; also recorded: remarkable increase; also recorded: almost two orders of magnitude”.

Regarding `COc1ccc2c(c1)c(CC(=O)[Se]CC(=O)O)c(C)n2C(=O)c1ccc(Cl)cc1` [I.4a], the solubility turned out to be 22.4 µM (≈ 10.7 µg/mL) in data set [1] (setting [2]), 56.5 µM in data set [1] (setting [3]) and 52.4 µM in data set [1] (setting [4]).

In the case of `COC(=O)C[Se]C(=O)Cc1c(C)n(C(=O)c2ccc(Cl)cc2)c2ccc(OC)cc12` [I.4b], the results for the solubility in data set [1] (setting [2]), in data set [1] (setting [3]) and in data set [1] (setting [4]) were 12 µM (≈ 5.91 µg/mL), 157 µM and 43.9 µM, respectively.

On to `COc1ccc2c(c1)c(CC(=O)[Se]CC#N)c(C)n2C(=O)c1ccc(Cl)cc1` [I.4d], for which the figures for the solubility in data set [1] (setting [2]), in data set [1] (setting [3]) and in data set [1] (setting [4]) were 20 µM (≈ 9.2 µg/mL), 45.3 µM and 33.7 µM, respectively.

Consider `COc1ccc2c(c1)c(CC(=O)[Se]CCC#N)c(C)n2C(=O)c1ccc(Cl)cc1` [I.4e], for which the solubility in data set [1] (setting [2]) was 5.72 µM (≈ 2.71 µg/mL); in data set [1] (setting [3]), 45.5 µM; in data set [1] (setting [4]), 42.1 µM.

Regarding `CC(=O)Oc1ccccc1C(=O)[Se][Se]C(=O)c1ccccc1OC(C)=O` [II.1], the solubility in data set [1] (setting [2]) was 8.43 µM (≈ 4.08 µg/mL); in data set [1] (setting [3]) it was 101 µM; in data set [1] (setting [4]), 15.1 µM.

Consider `COc1ccc2c(c1)c(CC(=O)[Se][Se]C(=O)Cc1c(C)n(C(=O)c3ccc(Cl)cc3)c3ccc(OC)cc13)c(C)n2C(=O)c1ccc(Cl)cc1` [II.2], for which the solubility is 0.132 µM (≈ 0.111 µg/mL) in data set [1] (setting [2]), 7.96 µM in data set [1] (setting [3]) and 7.6 µM in data set [1] (setting [4]).

For the compound `COc1ccc2cc([C@H](C)C(=O)[Se][Se]C(=O)[C@@H](C)c3ccc4cc(OC)ccc4c3)ccc2c1` [II.3], the solubility in data set [1] (setting [2]) amounted to 0.605 µM (≈ 0.354 µg/mL); in data set [1] (setting [3]) it was 0.219 µM; in data set [1] (setting [4]), 6.14 µM.

`CC(C(=O)[Se][Se]C(=O)C(C)c1cccc(C(=O)c2ccccc2)c1)c1cccc(C(=O)c2ccccc2)c1` (centres unmarked) [II.4]: the solubility in data set [1] (setting [2]) came out at 5.57 µM (≈ 3.52 µg/mL); in data set [1] (setting [3]), 27 µM; in data set [1] (setting [4]), 17.7 µM.

Take `CC(C)Cc1ccc(C(C)C(=O)[Se][Se]C(=O)C(C)c2ccc(CC(C)C)cc2)cc1` (centres unmarked) [II.5]: the “Anticancer properties (in words)” value in the data set on colon cancer is given as “potent anticancer properties”. Further, the solubility in data set [1] (setting [2]) amounted to 21.2 µM (≈ 11.4 µg/mL); in data set [1] (setting [3]), 5420 µM; in data set [1] (setting [4]), 7500 µM. Moreover, in data set [1], the “Improvement of water solubility after exposure to β- and γ-CD (in words)” value is “remarkable improvement; also recorded: remarkable increase; also recorded: almost two orders of magnitude”. For the same compound, the “Increase in water solubility with β-CD” value in data set [1] (versus compound alone, D2O) was “up to 250 fold”. In data set [1] (versus compound alone, D2O), the “Increase in water solubility with γ-CD” value is listed as at most 350 fold.
